Test results: patent US11319298B2 (Merck Sharp & Dohme Corp., priority 2016, dated 2022)

Molecular target: T1, human M4 muscarinic acetylcholine receptor (Homo sapiens, UniProt P08173)
T1 construct: expressed in transfected cells; host or cells: CHO-K1
T1 sequence (P08173 1-479): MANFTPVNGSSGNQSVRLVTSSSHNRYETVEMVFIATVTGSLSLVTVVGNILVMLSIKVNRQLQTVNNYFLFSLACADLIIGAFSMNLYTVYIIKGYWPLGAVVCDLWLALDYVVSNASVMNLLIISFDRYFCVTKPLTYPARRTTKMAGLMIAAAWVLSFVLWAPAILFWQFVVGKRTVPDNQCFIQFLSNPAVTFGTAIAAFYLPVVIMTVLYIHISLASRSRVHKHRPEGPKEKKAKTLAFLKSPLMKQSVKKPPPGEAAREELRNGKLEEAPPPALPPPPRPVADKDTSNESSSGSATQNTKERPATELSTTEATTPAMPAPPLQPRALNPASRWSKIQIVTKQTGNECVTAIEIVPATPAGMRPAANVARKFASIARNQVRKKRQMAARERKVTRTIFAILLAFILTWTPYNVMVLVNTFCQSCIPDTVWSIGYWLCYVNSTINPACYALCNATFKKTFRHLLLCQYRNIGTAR
Test: human FLIPR-based M4 PAM assay, CHO-K1 cells stably transfected with human M4 receptor and chimeric G-protein Gαqi5
Format: cell-based
Conditions: inflection point (IP) of dose response curve; acetylcholine added at 20% of maximum response; CHO-K1 human M4/Gαqi5, FLIPR Tetra
In short: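 CHO-K1 cells were loaded with calcium dye at 37 °C for ~1 h. Fluorescence (ex 470–495/em 515–575 nm) was read for 4 min after test compound at increasing concentrations, then 3.5 min after acetylcholine at an EC20; sometimes a third addition at EC70 followed. The value is the inflection point of a 4-parameter logistic fit.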

Compound	EC50 [nM]
COc1ccc(OC2CCN(c3nnc(C(=O)NCCc4ccccc4Cl)cc3C)CC2)cn1 [Example 197, N-[2-(2-chlorophenyl)ethyl]-6-{4-[(6-methoxypyridin-3-yl)oxy]piperidin-1-yl}-5-methylpyridazine-3-carboxamide]	91
COc1ccc(OC2CCN(c3nnc(C(=O)NCc4ccncc4)cc3C)CC2)cc1 [Example 101, 6-(4-(4-Methoxyphenoxy)piperidin-1-yl)-5-methyl-N-(pyridin-4-ylmethyl)pyridazine-3-carboxamide]	129
COc1ccc(O[C@@H]2CCN(c3nc(C(N)=O)nc(Cl)c3C)C[C@@H]2F)cn1 [Example 222, 4-chloro-6-((3S,4R)-3-fluoro-4-((6-methoxypyridin-3-yl)oxy)piperidin-1-yl)-5-methylpyrimidine-2-carboxamide]	141
Cc1c(Cl)nc(CO)nc1N1CCC(Oc2ccc3ncnn3c2)CC1 [Example 4, (4-(4-([1,2,4]triazolo[1,5-a]pyridin-6-yloxy)piperidin-1-yl)-6-chloro-5-methylpyrimidin-2-yl)methanol]	533
Cc1ncc(C)c(N2CCC(Oc3cccc(C#N)c3)CC2)n1 [Example 76, 3-((1-(2,5-dimethylpyrimidin-4-yl)piperidin-4-yl)oxy)benzonitrile]	172
Cc1nc2ccc(OC3CCN(c4nnc(C(=O)NCc5ccncc5)cc4C)CC3)cc2o1 [Example 143, 5-methyl-6-{4-[(2-methyl-1,3-benzoxazol-6-yl)oxy]piperidin-1-yl}-N-(pyridin-4-ylmethyl)pyridazine-3-carboxamide]	193
COc1ccc(OC2CCN(c3nc(C4CC4)nc(Cl)c3C)CC2)cc1 [Example 95C, 4-chloro-2-cyclopropyl-6-(4-(4-methoxyphenoxy)piperidin-1-yl)-5-methylpyrimidine]	846
COc1ccc(OC2CCN(c3nc(C(=O)NC4CNC4)nc(Cl)c3C)CC2)cn1 [Example 215, N-(azetidin-3-yl)-4-chloro-6-(4-((6-methoxypyridin-3-yl)oxy)piperidin-1-yl)-5-methylpyrimidine-2-carboxamide]	835
6-((1-(6-chloro-2-(hydroxymethyl)-5-methylpyrimidin-4-yl)piperidin-4-yl)oxy)-2-cyclopropylisoindolin-1-one [Example 32]	185
Cc1c(Cl)nc(CO)nc1N1CC[C@@H](Oc2ccc3[nH]ncc3c2)[C@@H](F)C1 [Example 90, (4-((3S,4R)-4-((1H-indazol-5-yl)oxy)-3-fluoropiperidin-1-yl)-6-chloro-5-methylpyrimidin-2-yl)methanol]	20
Cc1c(Cl)nc(CO)nc1N1CCC(Oc2ccc3c(c2)C(=O)N(C)CC3)CC1 [Example 41, 7-((1-(6-chloro-2-(hydroxymethyl)-5-methylpyrimidin-4-yl)piperidin-4-yl)oxy)-2-methyl-3,4-dihdyroisoquinolin-1(2H)-one]	322
COc1ccc(OC2CCN(c3nnc(C(=O)N[C@H]4CCc5ccccc5C4)cc3C)CC2)cn1 [Example 165B, (S)-6-{4-[(6-methoxypyridin-3-yl)oxy]piperidin-1-yl}-5-methyl-N-(1,2,3,4-tetrahydronapthalen-2-yl)pyridazine-3-carboxamide]	527
COC(=O)c1cc(C)c(N2CCC(Oc3ccc4c(c3)COC4)CC2)nc1Cl [Example 267, Methyl 2-chloro-6-(4-((1,3-dihydroisobenzofuran-5-yl)oxy)piperidin-1-yl)-5-methylnicotinate]	2570
COc1ccc(OC2CCN(c3ncnc(C)c3C)CC2)cn1 [Example 242, 4-(4-((6-methoxypyridin-3-yl)oxy)piperidin-1-yl)-5,6-dimethylpyrimidine]	143
COc1ccc(OC2CCN(c3nc(OC)ncc3C#N)CC2)cc1 [Example 18, 2-methoxy-4-(4-(4-methoxyphenoxy)piperidin-1-yl)pyrimidine-5-carbonitrile]	1890
COC(=O)c1cc(C)c(N2CC[C@H](Oc3ccc(OC)nc3)[C@H](F)C2)nn1 [Example 40, methyl 6-((3R,4S)-3-fluoro-4-((6-methoxypyridin-3-yl)oxy)piperidin-1-yl)-5-methylpyridazine-3-carboxylate]	290
COC(=O)Cc1c(Cl)ncnc1N1CCC(Oc2ccc(OC)cc2)CC1 [Example 17, methyl 2-(4-chloro-6-(4-(4-methoxyphenoxy)piperidin-1-yl)pyrimidin-5-yl)acetate]	2670

Compound	EC50 [nM]
CCCCc1ncnc(N2CCC(Oc3ccc(OC)nc3)CC2)c1C [Example 256, 4-butyl-6-(4-((6-methoxypyridin-3-yl)oxy)piperidin-1-yl)-5-methylpyrimidine]	2630
COc1ccc(O[C@@H]2CCN(c3nnc(C(=O)N[C@@H]4CCc5ncccc5C4)cc3C)C[C@@H]2F)cn1 [Example 138B, 6-((3S,4R)-3-fluoro-4-((6-methoxypyridin-3-yl)oxy)piperidin-1-yl)-5-methyl-N-((R)-5,6,7,8-tetrahydroquinolin-6-yl)pyridazine-3-carboxamide]	243
COc1ccc(OC2CCN(c3nnc(C(N)=O)cc3C)CC2)cn1 [Example 127, 6-{4-[(6-methoxypyridin-3-yl)oxy]piperidin-1-yl}-5-methylpyridazine-3-carboxamide]	114
COc1ccc(OC2CCN(c3nc(O)nc(Cl)c3C)CC2)cn1 [Example 235, 4-chloro-6-(4-((6-methoxypyridin-3-yl)oxy)piperidin-1-yl)-5-methylpyrimidin-2-ol]	248
Cc1nc(C)c(C)c(N2CCC(Oc3cccc(C#N)c3)CC2)n1 [Example 103, 3-((1-(2,5,6-Trimethylpyrimidin-4-yl)piperidin-4-yl)oxy)benzonitrile]	61
Cc1cc(C(=O)NCc2ccncc2)nnc1N1CCC(Oc2cccc(C#N)c2)CC1 [Example 204A, 6-(4-(3-cyanophenoxy)piperidin-1-yl)-5-methyl-N-(pyridin-4-ylmethyl)pyridazine-3-carboxamide]	99
COc1ccc(OC2CCN(c3nnc(C(=O)NCCn4ccnn4)cc3C)CC2)cn1 [Example 142, 6-{4-[(6-methoxypyridin-3-yl)oxy]piperidin-1-yl}-5-methyl-N-[2-(1H-1,2,3-triazol-1-yl)ethyl]pyridazine-3-carboxamide]	185
COc1ccc(OC2CCN(c3nnc(C(=O)NCc4ccccc4OC)cc3C)CC2)cn1 [Example 158, N-(2-methoxybenzyl)-6-{4-[(6-methoxypyridin-3-yl)oxy]piperidin-1-yl}-5-methylpyridazine-3-carboxamide]	282
COc1ccc(OC2CCN(c3nc(C(=O)NCCc4ccncc4)nc(Cl)c3C)CC2)cn1 [Example 208, 4-chloro-6-(4-((6-methoxypyridin-3-yl)oxy)piperidin-1-yl)-5-methyl-N-(2-(pyridin-4-yl)ethyl)pyrimidine-2-carboxamide]	491
COc1ccc(OC2CCN(c3nnc(C(=O)N[C@@H]4CCc5cc(F)ccc5C4)cc3C)CC2)cn1 [Example 184B, (R)-N-(6-fluoro-1,2,3,4-tetrahydronaphthalen-2-yl)-6-{4-[(6-methoxypyridin-3-yl)oxy]piperidin-1-yl}-5-methylpyridazine-3-carboxamide]	1010
COc1ccc(OC2CCN(c3nc(SC)ncc3C#N)CC2)cc1 [Example 95, 4-(4-(4-methoxyphenoxy)piperidin-1-yl)-2-(methylthio)pyrimidine-5-carbonitrile]	803
COc1ccc(OC2CCN(c3nnc(C(=O)NC4CCNC4=O)cc3C)CC2)cn1 (stereo not shown) [Example 180, 6-{4-[(6-methoxypyridin-3-yl)oxy]piperidin-1-yl}-5-methyl-N-(2-oxopyrrolidin-3-yl)pyridazine-3-carboxamide]	808
CSc1nc(Cl)c(C)c(N2CCC(Oc3cccnc3)CC2)n1 [Example 15, 4-chloro-5-methyl-2-(methylthio)-6-(4-(pyridin-3-yloxy)piperidin-1-yl)pyrimidine]	745
COc1ccc(OC2CCN(c3nnc(C(=O)NCCn4ccnc4)cc3C)CC2)cn1 [Example 162, N-[2-(1H-imidazol-1-yl)ethyl]-6-{4-[(6-methoxypyridin-3-yl)oxy]piperidin-1-yl}-5-methylpyridazine-3-carboxamide]	306
COc1ccc(OC2CCN(c3nc(S(C)(=O)=O)nc(Cl)c3C)CC2)cn1 [Example 226, 4-Chloro-6-(4-((6-methoxypyridin-3-yl)oxy)piperidin-1-yl)-5-methyl-2-(methylsulfonyl)pyrimidine]	231
Cc1nc(Cl)c(C)c(N2CCC(Oc3ccc4nn(C)cc4c3)CC2)n1 [Example 67, 5-((1-(6-chloro-2,5-dimethypyrimidin-4-yl)piperidin-4-yl)oxy)-2-methyl-2H-indazole]	108
COc1ccc(OC2CCN(c3nnc(C(=O)NCc4ccn(C)n4)cc3C)CC2)cn1 [Example 134, 6-{4-[(6-methoxypyridin-3-yl)oxy]piperidin-1-yl}-5-methyl-N-[(1-methyl-1H-pyrazol-3-yl)methyl]pyridazine-3-carboxamide]	151
